Like-named read-outs stand apart in the source and are kept apart here.
Columns and labels:
A/WSN/33 = test: microbe, parasite or virus in culture; assay type: cell-based, influenza virus
A549 cells [1] = conditions: human
in vitro = conditions: human
viral M mRNA = test: High-throughput smRNA-FISH screen for viral M mRNA processing and nuclear export; assay type: cell-based, influenza A/WSN/33 virus; conditions: 2.5 μM, A/WSN/33
A549 cells [2] = test: MTT cytotoxicity assay; conditions: 48 h, MTT, concentrations used for compound 2
[3] = unidentified influenza virus, WSN, A549, 24 h, read-out: WSN IC50, A549 cells, A/WSN/33 MOI 0.01, 24 h post infection, NP-positive cells
[4] = unidentified influenza virus, WSN, A549, 24 h, read-out: WSN IC90, A549 cells, A/WSN/33 MOI 0.01, 24 h post infection, NP-positive cells

| Molecule | IC50 (A/WSN/33; read-out: WSN IC50, A549 cells, A/WSN/33 MOI 0.01, 24 h post infection, NP-positive cells) | IC90 (A/WSN/33; read-out: WSN IC90, A549 cells, A/WSN/33 MOI 0.01, 24 h post infection, NP-positive cells) | 24 h MTT CC10 (A549 cells [1]) | CC50 (in vitro) | viral M mRNA nuclear retention (viral M mRNA) | IC50 (A/WSN/33; [3]) | IC90 (A/WSN/33; [4]) | CC50 (A549 cells [1]) | cytotoxicity (cell viability) (A549 cells [2]) |
| --- | --- | --- | --- | --- | --- | --- | --- | --- | --- |
| Cc1ccc(NC(=O)CSc2nc3ccccc3[nH]2)nc1 [Compound 20] | > 50 µM | > 50 µM | 7.855 µM | > 50 µM |  |  |  |  |  |
| OC[C@H]1O[C@@H](n2cnc3cc(Cl)c(Cl)cc32)[C@H](O)[C@@H]1O [DRB, 5,6-dichloro-1-β-D-ribofuranosylbenzimidazole] |  |  |  |  | positive control for viral M mRNA nuclear retention |  |  |  |  |
| Cn1c(SCC(=O)Nc2ccc(Br)cn2)nc2ccccc21 [Compound 1] |  |  | 1.417 µM | > 50 µM |  | 1.89 µM | 12.1 µM |  |  |
| Cc1ccc(NC(=O)CCc2nc3ccccc3o2)nc1 [Compound 15] |  |  | >50 µM |  |  | 30.7 µM | > 50 µM | > 50 µM |  |
| Cc1ccc2[nH]c(SCC(=O)Nc3ccc(Br)cn3)nc2c1 [Compound 26] |  |  | 6.797 µM |  |  | 25.5 µM | > 50 µM | 49.7 µM |  |
| O=C(CS(=O)(=O)c1nc2ccccc2[nH]1)Nc1ccc(Br)cn1 [Compound 6] |  |  | 23.361 µM | > 50 µM |  | 22.6 µM | > 50 µM |  |  |
| O=C(CSc1nc2ccccc2[nH]1)NC1CCCCC1 [Compound 10] |  |  | >50 µM | > 50 µM |  | > 50 µM | > 50 µM |  |  |
| Brc1ccc(CSc2nc3ccccc3[nH]2)nc1 [Compound 23] |  |  | 37.461 µM | > 50 µM |  | > 50 µM | > 50 µM |  |  |
| CCn1c(SCC(=O)Nc2ccc(Br)cn2)nc2ccccc21 [Compound 18] |  |  | 47.499 µM | > 50 µM |  | 38.4 µM | > 50 µM |  |  |
| ivermectin [reference compound] |  |  |  |  |  |  |  |  | positive control for cytotoxicity |
| O=C(CSc1nc2ccccc2[nH]1)Nc1ccc(F)cn1 [Compound 22] |  |  | 31.688 µM | > 50 µM |  | 43.3 µM | > 50 µM |  |  |
| O=C(CSc1nc2cc(F)ccc2[nH]1)Nc1ccc(Br)cn1 [Compound 27] |  |  | 2.905 µM | > 50 µM |  | 16.1 µM | 18.2 µM |  |  |
| Cc1ccc(NC(=O)CCC2=Nc3ccccc3C2)nc1 [Compound 16] |  |  | 7.382 µM |  |  | 30.9 µM | > 50 µM | > 50 µM |  |
| O=C(CSc1nc2ccccc2[nH]1)NCc1ccccc1 [Compound 9] |  |  | >50 µM | > 50 µM |  | > 50 µM | > 50 µM |  |  |
